Results on 22 compounds are retold here after patent US7550459B2, “Tetrahydroquinoline analogues as muscarinic agonists” (Acadia Pharmaceuticals, Inc., priority 2001, dated 2009).

Read-outs that look alike come from different tables or passages of the source.

The target in one test is T1, M1 muscarinic receptor (Homo sapiens, UniProt P11229).
T1 construct: expressed in transfected cells
T1 sequence (P11229 1-460): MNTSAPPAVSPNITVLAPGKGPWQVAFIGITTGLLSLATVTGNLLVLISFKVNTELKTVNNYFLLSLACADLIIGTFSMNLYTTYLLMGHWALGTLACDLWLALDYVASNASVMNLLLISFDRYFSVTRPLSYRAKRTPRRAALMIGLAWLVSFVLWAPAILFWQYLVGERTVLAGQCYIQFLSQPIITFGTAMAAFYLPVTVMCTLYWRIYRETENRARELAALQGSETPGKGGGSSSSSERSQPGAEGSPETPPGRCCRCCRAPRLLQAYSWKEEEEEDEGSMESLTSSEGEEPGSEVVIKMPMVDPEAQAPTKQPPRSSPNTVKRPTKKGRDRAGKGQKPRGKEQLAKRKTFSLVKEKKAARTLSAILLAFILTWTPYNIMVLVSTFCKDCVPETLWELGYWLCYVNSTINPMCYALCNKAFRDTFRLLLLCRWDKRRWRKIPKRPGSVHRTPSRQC
The experiment in a line: Receptor Selection and Amplification (R-SAT) assay, cloned M1 receptor. It is filed as cell-based. The arrangement: M1 Eff: scale not given here. The following applies: for Emax: read-out: m1 % Efficacy. From the text: (§1) The EC50 for an agonist is intended to denote the concentration of a compound needed to achieve 50% of a maximal response seen in an in vitro assay such as R-SAT. For inverse agonists, EC50 is intended to denote the concentration of a compound needed to achieve 50% inhibition of an R-SAT response from basal, no compound, levels.
(§2) A particularly convenient functional assay system is the receptor selection and amplification assay (R-SAT assay) in U.S. Pat. No. 5,707,798, which describes a method of screening for bioactive compounds by utilizing the ability of cells transfected with receptor DNA, e.g., coding for the different muscarinic subtypes, to amplify in the presence of a ligand of the receptor. Cell amplification is detected as increased levels of a marker also expressed by the cells.
(§3) Receptor Selection and Amplification (R-SAT) assays were carried out using the cloned M1-M5 receptors essentially as described in: Brauner-Osborne H, Brann M R. Pharmacology of muscarinic acetylcholine receptor subtypes (m1-m5): high throughput assays in mammalian cells. Eur J Pharmacol Jan. 4, 1996;295(1):93-102, and Spalding T A, Trotter C, Skjaerbaek N, Messier T L, Currier E A, Burstein E S, Li D, Hacksell U, Brann M R. Discovery of an ectopic activation site on the M(1) muscarinic receptor. Mol Pharmacol. 2002 June;61(6):1297-302.

For another test, the target named is T2, M2 muscarinic receptor (Homo sapiens, UniProt P08172).
T2 construct: expressed in transfected cells
T2 sequence (P08172 1-466): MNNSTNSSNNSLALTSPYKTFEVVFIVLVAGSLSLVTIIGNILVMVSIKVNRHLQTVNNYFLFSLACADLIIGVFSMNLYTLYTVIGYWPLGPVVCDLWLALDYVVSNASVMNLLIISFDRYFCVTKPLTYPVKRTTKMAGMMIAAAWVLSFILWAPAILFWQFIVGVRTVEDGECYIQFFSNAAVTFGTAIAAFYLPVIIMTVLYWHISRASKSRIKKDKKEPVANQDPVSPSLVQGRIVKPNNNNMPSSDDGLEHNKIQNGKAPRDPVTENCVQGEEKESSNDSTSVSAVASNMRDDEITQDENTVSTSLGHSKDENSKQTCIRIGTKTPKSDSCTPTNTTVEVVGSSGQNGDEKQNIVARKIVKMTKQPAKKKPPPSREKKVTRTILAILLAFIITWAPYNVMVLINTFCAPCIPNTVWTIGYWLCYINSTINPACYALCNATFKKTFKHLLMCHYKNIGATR
Description: Receptor Selection and Amplification (R-SAT) assay, cloned M2 receptor. The following applies: second table (COMPOUND ID series). The test is classed as cell-based. The arrangement: M2 Eff: scale not given here.
Excerpt: as §1, §2, §3

Setting [1] is: M1 pEC50, R-SAT, second table (COMPOUND ID series).
[2] abbreviates: R-SAT, second table (COMPOUND ID series).
[3] abbreviates: R-SAT, second table (COMPOUND ID series), read-out: M1 pEC50 (converted).
The mark [4] stands for this setting: R-SAT, read-out: M2 pEC50 (converted).
The mark [5] stands for this setting: R-SAT, cloned m1 receptor, read-out: m1 pEC50 (converted).

For `CCCC=C1CCN(C[C@@H](C)CN2C(=O)COc3ccc(OC)cc32)CC1` (racemic) [Compound 107LH74-3D, (R,S)-4-[3-(4-Butylidenepiperidin-1-yl)-2-methylpropyl]-6-methoxy-4H-benzo[1,4]oxazin-3-one], at M1 muscarinic receptor (R-SAT, cloned m1 receptor), the “m1 % Efficacy” value was 97% and the “m1 pEC50” value stood at 8.0.
On to `CC(CN1C(=O)COc2ccccc21)CN1C2CCC1CC(=CCOCC1CC1)C2` [Compound 00262357, 4-{(R,S)-3-[3-(2-Cyclopropylmethoxyethylidene)-8-aza-bicyclo[3.2.1]oct-8-yl]-2-methylpropyl}-4H-benzo[1.4]oxazin-3-one], for which, on M1 muscarinic receptor (setting [1]), the EC50 was 0.0126 µM. In addition, at M1 muscarinic receptor (setting [2]), the “M1 Eff” value is 79.
With `CC(CN1C(=O)COc2ccccc21)CN1[C@@H]2CC[C@H]1C[C@@H](OCC1CC1)C2` (mixture of isomers) [Compound 00262573, (R,S)-4-[3-(3a-Cyclopropylmethoxy-8-azabicyclo[3.2.1]oct-8-yl)-2-methylpropyl]-4H-benzo[1.4]oxazin-3-one], the EC50 is 0.00398 µM at M1 muscarinic receptor (setting [1]) and 0.0501 µM at M2 muscarinic receptor (M2 pEC50, R-SAT). The “M1 Eff” value on M1 muscarinic receptor (setting [2]) is 120. Besides, at M2 muscarinic receptor (R-SAT), the “M2 Eff” value is 72.
On to `C[C@@H](CN1C(=O)COc2ccccc21)CN1[C@@H]2CC[C@H]1CC(=NOCC1CC1)C2` (mixture of isomers) [Compound 00261537, 4-[3-(3-Cyclopropylmethoxyimino-8-aza-bicyclo[3.2.1]oct-8-yl)-2(R)-methyl-propyl]-4H-benzo[1,4]oxazin-3-one], for which the “M1 Eff” value at M1 muscarinic receptor (setting [2]) worked out at 126. In addition, the EC50 on M1 muscarinic receptor (setting [3]) was 0.126 µM; on M2 muscarinic receptor (setting [4]), 0.794 µM. In addition, the “M2 Eff” value at M2 muscarinic receptor (R-SAT) was 58.
Turning to `CCON=C1CC2CCC(C1)N2C[C@@H](C)CN1C(=O)COc2ccccc21` (single isomer, unassigned) [Compound 00261434], the EC50 at M1 muscarinic receptor (setting [1]) is 0.631 µM; at M2 muscarinic receptor (M2 pEC50, R-SAT), 2 µM. The “M1 Eff” value on M1 muscarinic receptor (setting [2]) is 110. Also, at M2 muscarinic receptor (R-SAT), the “M2 Eff” value worked out at 50.
On the same counts, the results for `CCOCCC1CC2CCC(C1)N2CC(C)CN1C(=O)COc2ccccc21` (single isomer, unassigned) [Compound 00262998] are 0.00794 µM, 0.398 µM, 102 and 56.
As for `CCCCC1CCN(CCCN2C(=O)COc3ccc(C(C)=O)cc32)CC1` [Compound 64LHY89-5, 6-Acetyl-4-[3-(4-butyl-piperidin-1-yl)-propyl]-4H-benzo[1,4]oxazin-3-one], the Emax on M1 muscarinic receptor (R-SAT, cloned m1 receptor) is 45%. Besides, the EC50 at M1 muscarinic receptor (setting [5]) was 2.51 µM.
As for `CC(CN1CCC(OCC2CCC2)CC1)CN1C(=O)COc2ccccc21` (racemic) [Compound 00262197, 4-[(R,S)-3-(4-Cyclobutylmethoxypiperidin-1-yl)-2-methylpropyl]-4H-benzo[1.4]oxazin-3-one], at M1 muscarinic receptor (setting [2]), the “M1 Eff” value was determined as 122. In addition, the values for the EC50 on M1 muscarinic receptor (setting [3]) and on M2 muscarinic receptor (setting [4]) were 0.158 µM and 2.51 µM, respectively. The “M2 Eff” value at M2 muscarinic receptor (R-SAT) stood at 28.
On to `O=C1COc2cc(F)cc(F)c2N1CCCN1CCC(OCC2CC2)CC1` [Compound 00262471, 4-[3-(4-Cyclopropylmethoxypiperidin-1-yl)propyl]-5,7-difluoro-4H-benzo[1,4]oxazin-3-one], for which the “M1 Eff” value on M1 muscarinic receptor (setting [2]) was 86. Moreover, at M1 muscarinic receptor (setting [3]), the EC50 is 0.794 µM.
In the case of `O=C1COc2ccccc2N1CCCN1CCC(OCC2CC2)CC1` [Compound 00262922, 4-[3-(4-Cyclopropylmethoxypiperidin-1-yl)propyl]-4H-benzo[1.4]oxazin-3-one], the “M1 Eff” value on M1 muscarinic receptor (setting [2]) came out at 84. Further, the EC50 was 0.0794 µM on M1 muscarinic receptor (setting [3]) and 1.26 µM at M2 muscarinic receptor (setting [4]). For the same compound, at M2 muscarinic receptor (R-SAT), the “M2 Eff” value was 40.
In the case of `O=C1CCc2cc(F)c(F)cc2N1CCCN1C2CCC1CC(=CCOCC1CC1)C2` [Compound 00262356, 1-{3-[3-(2-Cyclopropylmethoxyethylidene)-8-azabicyclo[3.2.1]oct-8-yl]-propyl}-6,7-difluoro-3,4-dihydro-1H-quinolin-2-one], on M1 muscarinic receptor (setting [1]), the EC50 is 0.0316 µM. For the same compound, the “M1 Eff” value on M1 muscarinic receptor (setting [2]) is on record as 46.
`CC(CN1CCC(OC(=O)OCC2CCC2)CC1)CN1C(=O)COc2ccccc21` (racemic) [Compound 00262198, carbonic acid cyclobutylmethyl ester 1-[(R,S)-2-methyl-3-(3-oxo-2,3-dihydrobenzo[1.4]oxazin-4-yl)propyl]piperidine-4-yl ester]: the “M1 Eff” value at M1 muscarinic receptor (setting [2]) is on record as 48. Further, the EC50 at M1 muscarinic receptor (setting [3]) is 3.98 µM.
As for `COCCC1CC2CCC(C1)N2CC(C)CN1C(=O)COc2ccccc21` [Compound 00263025, (R)-4-{3-[3a-(2-Methoxyethyl)-8-azabicyclo[3.2.1]oct-8-yl]-2-methylpropyl}-4H-benzo[1.4]oxazin-3-one], the EC50 was 0.00316 µM on M1 muscarinic receptor (setting [1]) and 0.158 µM at M2 muscarinic receptor (M2 pEC50, R-SAT). At M1 muscarinic receptor (setting [2]), the “M1 Eff” value was 116. Moreover, the “M2 Eff” value at M2 muscarinic receptor (R-SAT) was determined as 123.
For the compound `O=C1COc2ccc(F)c(F)c2N1CCCN1CCC(OCC2CC2)CC1` [Compound 00262696, 4-[3-(4-Cyclopropylmethoxypiperidin-1-yl)propyl]-5,6-difluoro-4H-benzo[1,4]oxazin-3-one], on M1 muscarinic receptor (setting [2]), the “M1 Eff” value turned out to be 83. Besides, on M1 muscarinic receptor (setting [3]), the EC50 is 0.631 µM.
For `O=C1COc2c(F)cc(F)cc2N1CCCN1CCC(OCC2CC2)CC1` [Compound 00262874] the same measures were 87 and 0.631 µM.
As to `COCC[C@H]1C[C@H]2CC[C@@H](C1)N2C[C@H](C)CN1C(=O)COc2ccccc21` [Compound 00263035, (S)-4-{3-[3a-(2-Methoxyethyl)-8-azabicyclo[3.2.1]oct-8-yl]-2-methylpropyl}-4H-benzo[1.4]oxazin-3-one], the EC50 on M1 muscarinic receptor (setting [1]) is 0.251 µM. Moreover, the “M1 Eff” value at M1 muscarinic receptor (setting [2]) came to 97.
For `CCOCCC1CC2CCC(C1)N2CC(C)CN1C(=O)COc2ccccc21` (single isomer, unassigned) [Compound 00262993] the same measures were 0.0794 µM and 55.
With `O=C1COc2c(F)ccc(F)c2N1CCCN1CCC(OCC2CC2)CC1` [Compound 00262869, 4-[3-(4-Cyclopropylmethoxypiperidin-1-yl)propyl]-5,8-difluoro-4H-benzo[1,4]oxazin-3-one], the “M1 Eff” value on M1 muscarinic receptor (setting [2]) is reported as 32. For the same compound, the EC50 at M1 muscarinic receptor (setting [3]) is 1.58 µM.
For the compound `CCOCC[C@@H]1C[C@H]2CC[C@@H](C1)N2C[C@H](C)CN1C(=O)COc2ccccc21` [Compound 00263034, (S)-4-{3-[3β-(2-Ethoxyethyl)-8-azabicyclo[3.2.1]oct-8-yl]-2-methylpropyl}-4H-benzo[1.4]oxazin-3-one], on M1 muscarinic receptor (setting [1]), the EC50 was 0.158 µM. For the same compound, the “M1 Eff” value on M1 muscarinic receptor (setting [2]) came out at 68.
Turning to `CCCCC1CCN(CCCN2C(=O)CCc3c2ccc(F)c3C)CC1` [Compound 107LH95-1, 1-[3-(4-Butyl-piperidin-1-yl)propyl]-6-fluoro-5-methyl-3,4-dihydro-1H-quinolin-2-one], the Emax at M1 muscarinic receptor (R-SAT, cloned m1 receptor) is 103%. Besides, on M1 muscarinic receptor (setting [5]), the EC50 was 0.0251 µM.
On M1 muscarinic receptor (m1 pEC50, R-SAT, cloned m1 receptor), `CCCCCC1CC2CC[C@@H](C1)N2C[C@@H](C)CN1C(=O)COc2cc(F)ccc21` (stereo partly drawn) [Compound 112KK20-c5, (R,S)-7-Fluoro-4-[2-methyl-3-(3-pentyl-8-azabicyclo[3.2.1]oct-8-yl)propyl]-4H-benzo[1,4]oxazin-3-one] had an EC50 of 0.00501 µM. In addition, the Emax at M1 muscarinic receptor was determined as 117%.
Consider `CCCCC1CCN(CCCN2CCCc3ccc(C(F)(F)F)cc32)CC1` [Compound 55LH54, 1-[3-(4-Butyl-piperidin-1-yl)-propyl]-7-trifluoromethyl-12.3.4-tetrahydro-quinoline], for which the Emax at M1 muscarinic receptor (R-SAT, cloned m1 receptor) is 57%. In addition, the EC50 on M1 muscarinic receptor (setting [5]) is 0.398 µM.
